# Experimental data reported in US11623919B2, “Heterocyclic P2X7 antagonists” (AXXAM S.P.A., priority 2017, dated 2023).
# How the values were obtained:
# Test in all cases: Screen Quest Fluo-8 No Wash Calcium Assay (Bz-ATP evoked Ca2+ influx, FLIPR)
# Format in all cases: cell-based
# P2X7 receptor [1] = target: T1, P2X7 receptor (Homo sapiens, UniProt Q99572); parameters: hP2X7 (IC50; nM); other: hP2X7; HEK-293 cells stably transfected with P2X7 receptor, Bz-ATP at EC80, Fluo-8 NW; potency; details: hP2X7; HEK-293 cells stably transfected with P2X7 receptor, Bz-ATP at EC80, Fluo-8 NW; potency ranges A-D
# T1 sequence (Q99572 1-595): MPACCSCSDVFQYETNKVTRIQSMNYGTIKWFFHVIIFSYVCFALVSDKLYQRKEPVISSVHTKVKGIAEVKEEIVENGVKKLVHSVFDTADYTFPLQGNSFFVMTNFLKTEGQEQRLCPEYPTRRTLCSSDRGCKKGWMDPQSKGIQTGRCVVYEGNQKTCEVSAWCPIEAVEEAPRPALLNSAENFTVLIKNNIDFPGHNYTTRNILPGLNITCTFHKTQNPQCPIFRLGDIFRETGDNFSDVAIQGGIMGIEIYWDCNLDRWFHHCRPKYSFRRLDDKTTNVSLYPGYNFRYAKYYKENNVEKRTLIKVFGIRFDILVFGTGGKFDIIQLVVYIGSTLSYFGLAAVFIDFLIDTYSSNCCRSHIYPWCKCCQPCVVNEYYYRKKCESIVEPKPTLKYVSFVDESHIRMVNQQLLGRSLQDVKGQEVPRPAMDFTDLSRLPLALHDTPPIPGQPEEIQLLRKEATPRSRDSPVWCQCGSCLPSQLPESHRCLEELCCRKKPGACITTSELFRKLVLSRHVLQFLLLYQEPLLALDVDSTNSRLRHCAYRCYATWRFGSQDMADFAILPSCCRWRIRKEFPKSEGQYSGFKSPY
# Summary of the method: (§1)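 Compounds were added to Fluo-8-loaded P2X7-transfected HEK-293 cells 5 min before an EC80 Bz-ATP challenge, and Ca2+ influx was then recorded for 3 min. Buffer held 0.3 mM Ca2+ and no Mg2+. Inhibition was normalised to A438079, giving IC50 values.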
# P2X7 receptor [2] = target: T2, P2X7 receptor (Rattus norvegicus, UniProt Q64663); details: rP2X7; HEK-293 cells stably transfected with P2X7 receptor, Bz-ATP at EC80, Fluo-8 NW; potency ranges A-D
# T2 construct: rP2X7 (IC50; nM); other: rP2X7; HEK-293 cells stably transfected with P2X7 receptor, Bz-ATP at EC80, Fluo-8 NW; potency
# T2 sequence (Q64663 1-595): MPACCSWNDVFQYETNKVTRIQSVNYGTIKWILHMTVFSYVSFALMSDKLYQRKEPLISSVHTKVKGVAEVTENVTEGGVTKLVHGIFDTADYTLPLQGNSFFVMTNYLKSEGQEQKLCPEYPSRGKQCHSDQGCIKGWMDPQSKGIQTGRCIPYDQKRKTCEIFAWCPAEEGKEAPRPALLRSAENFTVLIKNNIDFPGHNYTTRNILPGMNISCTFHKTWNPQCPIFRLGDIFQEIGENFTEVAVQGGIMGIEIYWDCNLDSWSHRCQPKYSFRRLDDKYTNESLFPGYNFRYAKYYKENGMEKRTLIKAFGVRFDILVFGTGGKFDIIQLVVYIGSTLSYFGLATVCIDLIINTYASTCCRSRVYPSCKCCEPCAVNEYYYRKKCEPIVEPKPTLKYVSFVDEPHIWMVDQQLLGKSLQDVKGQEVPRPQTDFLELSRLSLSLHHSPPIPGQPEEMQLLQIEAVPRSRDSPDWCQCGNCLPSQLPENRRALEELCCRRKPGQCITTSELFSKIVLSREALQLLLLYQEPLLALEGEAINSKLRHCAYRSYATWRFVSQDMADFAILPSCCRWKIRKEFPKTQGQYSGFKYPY
# Summary of the method: as §1
# P2X7 receptor [3] = target: T3, P2X7 receptor (Mus musculus, UniProt Q9Z1M0); details: mP2X7; HEK-293 cells stably transfected with P2X7 receptor, Bz-ATP at EC80, Fluo-8 NW; potency ranges A-D
# T3 construct: mP2X7 (IC50; nM); other: mP2X7; HEK-293 cells stably transfected with P2X7 receptor, Bz-ATP at EC80, Fluo-8 NW; potency
# T3 sequence (Q9Z1M0 1-595): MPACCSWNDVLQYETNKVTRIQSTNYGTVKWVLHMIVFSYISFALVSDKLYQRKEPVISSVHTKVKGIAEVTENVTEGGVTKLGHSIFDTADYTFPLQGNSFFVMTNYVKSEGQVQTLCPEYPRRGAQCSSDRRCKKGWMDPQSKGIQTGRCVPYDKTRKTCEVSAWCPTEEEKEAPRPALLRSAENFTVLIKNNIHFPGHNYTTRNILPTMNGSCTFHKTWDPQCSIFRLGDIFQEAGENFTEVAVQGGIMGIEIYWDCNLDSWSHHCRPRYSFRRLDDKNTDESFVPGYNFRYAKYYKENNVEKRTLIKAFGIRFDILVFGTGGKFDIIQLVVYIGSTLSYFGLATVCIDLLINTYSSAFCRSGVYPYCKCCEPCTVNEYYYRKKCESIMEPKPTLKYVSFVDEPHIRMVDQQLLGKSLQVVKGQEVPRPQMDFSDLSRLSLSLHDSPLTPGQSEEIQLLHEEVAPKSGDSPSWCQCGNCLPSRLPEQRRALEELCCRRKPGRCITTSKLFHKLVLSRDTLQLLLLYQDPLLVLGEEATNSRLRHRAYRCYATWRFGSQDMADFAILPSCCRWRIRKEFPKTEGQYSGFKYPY
# Summary of the method: as §1
Compound,IC50 (P2X7 receptor [1]) [nM],IC50 (P2X7 receptor [2]) [nM],IC50 (P2X7 receptor [3]) [nM]
"O=c1onc(Cc2ccccc2)n1CC1CCCCC1 [Example 126, 3-benzyl-4-(cyclohexylmethyl)-4,5-dihydro-1,2,4-oxadiazol-5-one]",1000 to 10000,200 to 1000,1000 to 10000
"O=c1onc(CC2CCC(F)(F)CC2)n1Cn1ccc(C(F)(F)F)n1 [Example 198, 3-[(4,4-difluorocyclohexyl)methyl]-4-{[3-(trifluoromethyl)-1H-pyrazol-1-yl]methyl}-1,2,4-oxadiazol-5(4H)-one]",> 10000,1000 to 10000,1000 to 10000
"O=c1onc(CC2CCC(F)(F)CC2)n1CC1CCCCC1 [Example 133, 4-(cyclohexylmethyl)-3-[(4,4-difluorocyclohexyl)methyl]-4,5-dihydro-1,2,4-oxadiazol-5-one]",1000 to 10000,1000 to 10000,> 10000
"O=c1onc(Cc2ccccc2F)n1CC1CCC(F)(F)CC1 [Example 150, 4-[(4,4-difluorocyclohexyl)methyl]-3-[(2-fluorophenyl)methyl]-4,5-dihydro-1,2,4-oxadiazol-5-one]",200 to 1000,< 200,200 to 1000
"O=c1onc(Cc2cccc(C(F)(F)F)c2Cl)n1CC1CCC(F)(F)CC1 [Example 155, 3-{[2-chloro-3-(trifluoromethyl)phenyl]methyl}-4-[(4,4-difluorocyclohexyl)methyl]-4,5-dihydro-1,2,4-oxadiazol-5-one]",< 200,200 to 1000,200 to 1000
"O=c1onc(CC2CCC(F)(F)CC2)n1Cc1ncc(F)cn1 [Example 190, 3-[(4,4-difluorocyclohexyl)methyl]-4-[(5-fluoropyrimidin-2-yl)methyl]-4,5-dihydro-1,2,4-oxadiazol-5-one]",> 10000,> 10000,> 10000
"O=c1onc(Cc2ccc(Cl)cc2Cl)n1CC1CCC(F)(F)CC1 [Example 159, 3-[(2,4-dichlorophenyl)methyl]-4-[(4,4-difluorocyclohexyl)methyl]-4,5-dihydro-1,2,4-oxadiazol-5-one]",< 200,< 200,200 to 1000

# More lines, now with the values ahead:
IC50 (P2X7 receptor [1]) [nM],IC50 (P2X7 receptor [2]) [nM],IC50 (P2X7 receptor [3]) [nM],Compound
1000 to 10000,> 10000,> 10000,"O=c1onc(Cc2ccc(F)cc2)n1Cc1cc(F)ccc1Br [Example 5, 4-[(2-bromo-5-fluorophenyl)methyl]-3-[(4-fluorophenyl)methyl]-4,5-dihydro-1,2,4-oxadiazol-5-one]"
1000 to 10000,> 10000,1000 to 10000,"O=c1onc(Cc2c(F)cccc2Cl)n1Cc1cccc2ccccc12 [Example 29, 3-[(2-chloro-6-fluorophenyl)methyl]-4-(naphthalen-1-ylmethyl)-4,5-dihydro-1,2,4-oxadiazol-5-one]"
1000 to 10000,1000 to 10000,1000 to 10000,"O=c1onc(Cc2c(F)cccc2Cl)n1Cn1ccc(C(F)(F)F)n1 [Example 35, 3-[(2-chloro-6-fluorophenyl)methyl]-4-{[3-(trifluoromethyl)-1H-pyrazol-1-yl]methyl}-4,5-dihydro-1,2,4-oxadiazol-5-one]"
> 10000,> 10000,> 10000,"O=c1onc(Cc2ccc(F)cc2)n1Cc1cccc(Cl)c1Cl [Example 50, 4-[(2,3-dichlorophenyl)methyl]-3-[(4-fluorophenyl)methyl]-4,5-dihydro-1,2,4-oxadiazol-5-one]"
1000 to 10000,1000 to 10000,> 10000,"CCCOCn1c(Cc2c(F)cccc2Cl)noc1=O [Example 102, 3-[(2-chloro-6-fluorophenyl)methyl]-4-(propoxymethyl)-4,5-dihydro-1,2,4-oxadiazol-5-one]"
> 10000,> 10000,> 10000,"O=c1onc(Cc2c(F)cccc2Cl)n1CC1CC1 [Example 83, 3-[(2-chloro-6-fluorophenyl)methyl]-4-(cyclopropylmethyl)-4,5-dihydro-1,2,4-oxadiazol-5-one]"
